pIC50: −log10 of the molar value.
These molecules were tested against T1, recombinant human ACC2 (Homo sapiens, UniProt O00763) (assay: Measurement of inhibitory activity on human ACC2 (MALDI-TOF MS, acetyl CoA to malonyl CoA conversion)). Conditions: inhibition activity on human ACC2, Table 84; read-out: IC50.
T1 construct: a cDNA encoding human ACC2 (27-2458) was cloned from human kidney cDNA library (Clontech); His-tag (N); made in house; host or cells: Sf-9 insect cells (Bac-to-Bac baculovirus)
T1 sequence (O00763 27-2458): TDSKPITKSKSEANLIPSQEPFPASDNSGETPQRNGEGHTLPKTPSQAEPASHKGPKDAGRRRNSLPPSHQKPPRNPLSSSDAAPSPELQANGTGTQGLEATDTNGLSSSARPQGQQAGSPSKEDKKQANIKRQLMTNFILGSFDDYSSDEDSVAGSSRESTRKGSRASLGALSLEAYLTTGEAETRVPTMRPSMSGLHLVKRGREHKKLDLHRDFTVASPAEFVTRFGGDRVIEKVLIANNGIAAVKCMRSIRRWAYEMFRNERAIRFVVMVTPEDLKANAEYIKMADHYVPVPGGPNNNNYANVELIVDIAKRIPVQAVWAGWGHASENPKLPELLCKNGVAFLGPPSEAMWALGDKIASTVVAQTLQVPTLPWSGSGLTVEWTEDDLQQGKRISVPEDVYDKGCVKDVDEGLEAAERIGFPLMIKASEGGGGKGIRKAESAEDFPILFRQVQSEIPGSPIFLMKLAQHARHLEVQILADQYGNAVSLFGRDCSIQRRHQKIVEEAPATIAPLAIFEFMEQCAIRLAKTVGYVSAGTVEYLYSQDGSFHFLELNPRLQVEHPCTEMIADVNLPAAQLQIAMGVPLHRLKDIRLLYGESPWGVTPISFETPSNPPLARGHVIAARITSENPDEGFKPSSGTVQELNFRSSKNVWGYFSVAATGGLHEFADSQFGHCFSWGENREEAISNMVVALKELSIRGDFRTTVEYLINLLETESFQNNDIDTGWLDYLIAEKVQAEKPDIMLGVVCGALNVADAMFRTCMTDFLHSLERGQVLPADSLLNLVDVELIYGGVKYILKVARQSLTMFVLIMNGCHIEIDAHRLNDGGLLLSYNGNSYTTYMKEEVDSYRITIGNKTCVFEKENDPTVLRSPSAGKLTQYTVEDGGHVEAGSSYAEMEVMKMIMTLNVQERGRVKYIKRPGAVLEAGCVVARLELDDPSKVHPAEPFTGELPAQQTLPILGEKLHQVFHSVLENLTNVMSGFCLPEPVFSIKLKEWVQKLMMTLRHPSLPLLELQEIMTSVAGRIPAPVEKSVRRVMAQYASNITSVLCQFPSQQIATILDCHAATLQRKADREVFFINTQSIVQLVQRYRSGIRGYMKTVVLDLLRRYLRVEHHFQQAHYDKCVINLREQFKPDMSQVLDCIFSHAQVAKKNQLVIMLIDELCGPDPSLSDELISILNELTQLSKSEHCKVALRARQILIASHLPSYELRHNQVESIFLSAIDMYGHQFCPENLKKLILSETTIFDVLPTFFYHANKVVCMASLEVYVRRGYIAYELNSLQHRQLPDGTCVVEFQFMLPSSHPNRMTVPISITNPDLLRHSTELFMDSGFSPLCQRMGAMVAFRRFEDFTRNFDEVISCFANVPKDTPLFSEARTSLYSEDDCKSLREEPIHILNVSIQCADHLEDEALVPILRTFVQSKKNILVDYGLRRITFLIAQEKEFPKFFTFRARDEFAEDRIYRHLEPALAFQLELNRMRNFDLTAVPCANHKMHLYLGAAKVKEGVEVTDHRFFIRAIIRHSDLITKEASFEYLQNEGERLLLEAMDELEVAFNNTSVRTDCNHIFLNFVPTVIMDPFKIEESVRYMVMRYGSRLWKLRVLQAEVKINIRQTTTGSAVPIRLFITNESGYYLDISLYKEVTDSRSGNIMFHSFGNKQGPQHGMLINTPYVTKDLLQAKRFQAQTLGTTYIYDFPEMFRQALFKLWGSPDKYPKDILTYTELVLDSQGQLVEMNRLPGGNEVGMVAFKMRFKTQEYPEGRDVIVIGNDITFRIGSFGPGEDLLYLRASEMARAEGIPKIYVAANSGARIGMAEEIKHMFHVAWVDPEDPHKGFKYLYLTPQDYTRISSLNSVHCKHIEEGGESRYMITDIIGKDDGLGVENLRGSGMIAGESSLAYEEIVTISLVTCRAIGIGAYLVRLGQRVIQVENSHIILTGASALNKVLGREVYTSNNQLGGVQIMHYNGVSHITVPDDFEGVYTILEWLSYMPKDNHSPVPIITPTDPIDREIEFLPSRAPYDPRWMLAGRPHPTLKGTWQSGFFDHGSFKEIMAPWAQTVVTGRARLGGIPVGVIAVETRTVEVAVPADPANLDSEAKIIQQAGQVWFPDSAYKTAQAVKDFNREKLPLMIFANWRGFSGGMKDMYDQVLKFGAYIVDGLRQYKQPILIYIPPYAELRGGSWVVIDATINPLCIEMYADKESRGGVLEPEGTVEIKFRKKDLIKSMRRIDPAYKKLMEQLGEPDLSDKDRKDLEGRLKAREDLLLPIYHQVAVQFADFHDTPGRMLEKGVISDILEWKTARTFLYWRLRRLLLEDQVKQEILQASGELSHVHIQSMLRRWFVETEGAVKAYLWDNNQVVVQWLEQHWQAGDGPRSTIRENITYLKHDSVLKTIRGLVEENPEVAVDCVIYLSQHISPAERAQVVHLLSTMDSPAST
Format: biochemical
Method: To express human ACC2, Sf-9 cells were infected with recombinant baculovirus. After infected cells were disrupted, the filtrated lysate was subjected to Ni-affinity chromatography and anion-exchange chromatography. The fractions containing human ACC2 protein were pooled as recombinant human ACC2 solution.
Recombinant human ACC1 and recombinant human ACC2, which were prepared by the method mentioned above, were preincubated with assay buffer solution (50 mM HEPES-KOH (pH 7.4), 10 mM magnesium chloride, 6-10 mM potassium citrate, 4 mM reduced form of glutathione, 1.5 mg/ml bovine serum albumin) for one hour. Then, 0.2 μL of each this invention compound solution (in DMSO) were dispensed to 384-well microplate, 5 μL of the preincubated enzyme solution and 5 μL of substrate solution (50 mM HEPES-KOH (pH 7.4), 1 mM ATP, 0.8 mM acetyl CoA and 25-50 mM potassium bicarbonate) were added to microplate. After centrifugation and shaking, the reaction mixtures were incubated in a humidified box at room temperature for 1 to 3 hours. After the incubation, the enzyme reactions were stopped by the addition of EDTA. Then, after the samples were cocrystallized with CHCA (α-cyano-4-hydroxy cinnamic acid) matrices on MALDI target plate, by using the matrix assist laser deionization time-of-flight mass spectrometer (MALDI-TOF MS), samples were measured in reflector negative mode. Deprotonated ions of acetyl CoA (AcCoA) of substrate and malonyl CoA (MalCoA) of the reaction product were detected, then, the conversion rates of acetyl CoA to malonyl CoA was calculated by the intensity of [MalCoA-H]-/(Intensity of [MalCoA-H]-+Intensity of [AcCoA-H]-) using each signal strength. […] In addition, potassium citrate concentrations in assay buffer solution, potassium hydrogen carbonate concentrations in substrate solution and incubation time were adjusted by each lot of enzyme.
For `CC(=O)N[C@@H](C)/C=C/c1ccc(Oc2ccc3c(c2)OCCC3)nc1` [Compound I-449], the pIC50 was 6.89. In the case of `CC(=O)N[C@@H](C)/C=C/c1ccc(Oc2ccc(OCc3ccccc3)cc2Cl)nc1` [Compound I-450], the pIC50 was 7.22. Molecule `CC(=O)N[C@@H](C)/C=C/c1ccc(Oc2ccc(Oc3ccc([N+](=O)[O-])cc3)cc2Cl)nc1` [Compound I-451] has a pIC50 of 7.60. `CC(=O)N[C@@H](C)/C=C/c1ccc(Oc2ccc(Oc3ccc(C#N)cc3)cc2Cl)nc1` [Compound I-452] was tested, and the pIC50 was 7.38. `CC(=O)N[C@@H](C)/C=C/c1ccc(Oc2ccc(Oc3cncs3)cc2Cl)nc1` [Compound I-453] was tested, and the pIC50 was 6.14. For `CC(=O)N[C@@H](C)/C=C/c1ccc(Oc2ccc(-c3ncc(F)cn3)cc2Cl)nc1` [Compound I-454], the pIC50 was 7.43. In the case of `CC(=O)N[C@@H](C)/C=C/c1ccc(Oc2ccc3nc(C)sc3c2Cl)nc1` [Compound I-455], the pIC50 was 7.52. `CC(=O)N[C@@H](C)/C=C/c1ccc(Oc2ccc3c(C)noc3c2)nc1` [Compound I-456] showed a pIC50 of 6.35. Work on `CC(=O)N[C@@H](C)/C=C/c1ccc(Oc2cc(C)c(C)cc2Cl)nc1` [Compound I-457] yielded a pIC50 of 6.51. `CCCc1cc(Cl)c(Oc2ccc(/C=C/[C@H](C)NC(C)=O)cn2)cc1Cl` [Compound I-458] gave a pIC50 of 7.59. `CCCc1ccc(Oc2ccc(/C=C(\F)[C@H](C)NC(C)=O)cn2)c(Cl)c1` [Compound I-459] was tested, and the pIC50 was 7.92. `C/C=C/c1ccc(Oc2ccc(/C=C/[C@H](C)NC(C)=O)cn2)c(Cl)c1` [Compound I-460] was tested, and the pIC50 was 6.89. Molecule `CC(=O)N[C@@H](C)/C=C/c1ccc(Oc2ccc3nc(C)oc3c2)nc1` [Compound I-461] has a pIC50 of 5.82. `CC(=O)N[C@@H](C)/C=C/c1ccc(Oc2ccc(Oc3ccccc3)cc2Cl)nc1` [Compound I-462] was tested, and the pIC50 was 7.72. `CC(=O)N[C@@H](C)/C=C/c1ccc(Oc2ccc(Oc3ccccn3)cc2Cl)nc1` [Compound I-463] was tested, and the pIC50 was 7.17. Molecule `CC(=O)N[C@@H](C)/C=C/c1ccc(Oc2ccc(Oc3cccnc3)cc2Cl)nc1` [Compound I-464] has a pIC50 of 6.92. `CC(=O)N[C@@H](C)/C=C/c1ccc(Oc2ccc(Oc3ccncc3)cc2Cl)nc1` [Compound I-465] showed a pIC50 of 6.92. Work on `CC(=O)N[C@@H](C)/C=C/c1ccc(Oc2ccc3c(c2Cl)CCC3(F)F)nc1` [Compound I-466] yielded a pIC50 of 7.80. For `CCCC(F)(CC)c1ccc(Oc2ccc(/C=C/[C@H](C)NC(C)=O)cn2)c(Cl)c1` (stereo partly shown) [Compound I-467], the pIC50 was 7.37. Work on `CC(=O)N[C@@H](C)/C=C/c1ccc(Oc2ccc3c(c2)CCN(CC2CC2)C3=O)nc1` [Compound I-468] yielded a pIC50 of 7.05. For `CCCc1cccc(Oc2ccc(/C=C/[C@H](C)NC(C)=O)cn2)c1Cl` [Compound I-469], the pIC50 was 7.44. `CCCc1cc(Cl)cc(Oc2ccc(/C=C/[C@H](C)NC(C)=O)cn2)c1` [Compound I-470] showed a pIC50 of 6.64. In the case of `CCOc1ccc(Oc2ccc(/C=C(\F)[C@H](C)NC(C)=O)cn2)c(Cl)c1` [Compound I-471], the pIC50 was 7.80. `CC(=O)N[C@@H](C)/C=C/c1ccc(Oc2ccc3c(c2)OCCO3)nc1` [Compound I-472] showed a pIC50 of 7.43. `CCC(F)(F)c1ccc(Oc2cnc(/C=C/[C@H](C)NC(C)=O)cn2)c(Cl)c1` [Compound I-473] gave a pIC50 of 7.41. For `CCc1nc2ccc(Oc3ccc(/C=C/[C@H](C)NC(C)=O)cn3)c(Cl)c2s1` [Compound I-474], the pIC50 was 8.01. `CCCc1ccc(Cl)c(Oc2ccc(/C=C/[C@H](C)NC(C)=O)cn2)c1` [Compound I-475] showed a pIC50 of 6.77. `C/C=C(\CC)c1ccc(Oc2ccc(/C=C/[C@H](C)NC(C)=O)cn2)c(Cl)c1` [Compound I-476] gave a pIC50 of 6.62. `CC(=O)N[C@@H](C)/C=C/c1ccc(Oc2ccc3nc(C(C)C)sc3c2Cl)nc1` [Compound I-477] showed a pIC50 of 8.16. `CC(=O)N[C@@H](C)/C=C/c1ccc(Oc2cc3sc(C)nc3cc2Cl)nc1` [Compound I-478] gave a pIC50 of 6.26. In the case of `CC(=O)N[C@@H](C)/C=C/c1ccc(Oc2cc3c(cc2Cl)OCC3)nc1` [Compound I-479], the pIC50 was 6.36. `CCN1CCc2cc(Oc3ccc(/C=C/[C@H](C)NC(C)=O)cn3)ccc2C1=O` [Compound I-480] showed a pIC50 of 6.28. Work on `CC(=O)N[C@@H](C)/C=C/c1ccc(Oc2ccc3nc(C(F)(F)F)sc3c2)nc1` [Compound I-481] yielded a pIC50 of 7.89. For `CC(=O)N[C@@H](C)/C=C/c1ccc(Oc2ccc3c(c2)OC(F)(F)C(F)(F)O3)nc1` [Compound I-482], the pIC50 was 8.09. `CC(=O)N[C@@H](C)/C=C/c1ccc(Oc2ccc3c(c2)OC(F)(F)O3)nc1` [Compound I-483] was tested, and the pIC50 was 7.28. In the case of `CSc1ncc(Oc2ccc(/C=C/[C@H](C)NC(C)=O)cn2)cn1` [Compound I-484], the pIC50 was 6.80. `CCCc1cc(Oc2ccc(/C=C/[C@H](C)NC(C)=O)cn2)ccc1Cl` [Compound I-485] showed a pIC50 of 6.89. Work on `CC(=O)N[C@@H](C)/C=C/c1ccc(Oc2ccc3c(C)nsc3c2)nc1` [Compound I-486] yielded a pIC50 of 6.96. `CCc1nc2cc(Cl)c(Oc3ccc(/C=C/[C@H](C)NC(C)=O)cn3)cc2s1` [Compound I-487] was tested, and the pIC50 was 7.42. In the case of `CC(=O)N[C@@H](C)/C=C/c1ccc(Oc2cc3sc(C(C)C)nc3cc2Cl)nc1` [Compound I-488], the pIC50 was 7.96. `CCOc1ccc(Oc2ccc(/C=C/[C@H](C)NC(C)=O)nc2)c(Cl)c1` [Compound I-489] showed a pIC50 of 6.26. Molecule `CC(=O)N[C@@H](C)/C=C/c1ccc(Oc2ccc(OCC3CC3)cc2Cl)cn1` [Compound I-490] has a pIC50 of 7.38. For `CC(=O)N[C@@H](C)/C=C/c1ccc(Oc2ccc3nc(C(F)(F)F)sc3c2Cl)nc1` [Compound I-491], the pIC50 was 8.24. `CC(=O)N[C@@H](C)/C=C/c1ccc(Oc2cnc(OCC3CC3)nc2)nc1` [Compound I-492] was tested, and the pIC50 was 7.10. Work on `CC(=O)N[C@@H](C)/C=C/c1ccc(Oc2ccc(-c3ncc(F)cn3)cc2)nc1` [Compound I-493] yielded a pIC50 of 6.82. `CC(=O)N[C@@H](C)/C=C/c1ccc(Oc2ccc(C3CC3C)cc2Cl)nc1` (stereo partly shown) [Compound I-494] showed a pIC50 of 7.85. Molecule `CCc1nc2ccc(Oc3ccc(/C=C/[C@H](C)NC(C)=O)cn3)cc2o1` [Compound I-495] has a pIC50 of 7.68. Molecule `CCCc1ccc(Oc2ccc(/C=C/[C@H](C)NC(C)=O)nc2)c(Cl)c1` [Compound I-496] has a pIC50 of 6.68. `CC(=O)N[C@@H](C)/C=C/c1cnc(Oc2ccc(C(C)(C)C)cc2Cl)cn1` [Compound I-497] showed a pIC50 of 7.29. `CC(=O)N[C@@H](C)/C=C/c1ccc(Oc2ccc3c(c2)CC(C)(C)O3)nc1` [Compound I-498] was tested, and the pIC50 was 7.57. Molecule `CC(=O)N[C@@H](C)/C=C/c1ccc(Oc2cnc(N3CCCCC3)nc2)nc1` [Compound I-499] has a pIC50 of 7.02. `CC(=O)N[C@@H](C)/C=C/c1ccc(Oc2ccc3nc(C(C)C)oc3c2)nc1` [Compound I-500] gave a pIC50 of 8.05. `CC(=O)N[C@@H](C)/C=C/c1ccc(Oc2ccc3sc(C)nc3c2Cl)nc1` [Compound I-501] showed a pIC50 of 7.51. For `CC(=O)N[C@@H](C)/C=C/c1ccc(Oc2ccc3nc(C(C)(C)C)sc3c2Cl)nc1` [Compound I-502], the pIC50 was 8.15. With `CC(=O)N[C@@H](C)/C=C/c1ccc(Oc2ccc(-c3ccccc3)c(Cl)c2)nc1` [Compound I-503] the pIC50 was 8.29. With `CC(=O)N[C@@H](C)/C=C/c1ccc(Oc2ccc3nc(C(C)(C)C)sc3c2)nc1` [Compound I-504] the pIC50 was 8.19. `CCOc1ccc(OCc2cccc(/C=C/[C@H](C)NC(C)=O)n2)c(Cl)c1` [Compound I-505] was tested, and the pIC50 was 7.35. With `CCOc1ccc(OCc2cccc(/C=C/[C@H](C)NC(C)=O)c2)c(Cl)c1` [Compound I-506] the pIC50 was 8.09. With `CC(=O)N[C@@H](C)/C=C/c1ccc(Oc2cc3c(cc2Cl)OC(C)(C)C3)nc1` [Compound I-507] the pIC50 was 7.37. `CC(=O)N[C@@H](C)/C=C/c1cnc(Oc2cc3c(cc2Cl)OC(C)(C)C3)cn1` [Compound I-508] was tested, and the pIC50 was 6.64. With `CC(=O)N[C@@H](C)/C=C/c1ccc(Oc2ccc3nc(C)sc3c2C#N)nc1` [Compound I-509] the pIC50 was 7.64. `CC(=O)N[C@@H](C)/C=C/c1cnc(Oc2ccc3nc(C(F)(F)F)sc3c2Cl)cn1` [Compound I-510] showed a pIC50 of 8.22. With `CC(=O)N[C@@H](C)/C=C/c1ccc(Oc2ccc3c(c2Cl)CCN(CC2CC2)C3=O)nc1` [Compound I-511] the pIC50 was 7.06. Work on `CC(=O)N[C@@H](C)/C=C/c1ccc(Oc2ccc(CC(C)(C)C)cc2Cl)cn1` [Compound I-512] yielded a pIC50 of 6.85. Work on `CC(=O)N[C@@H](C)/C=C/c1ccc(Oc2ccc(C3=CCC4(CC3)CC4)cc2Cl)cn1` [Compound I-513] yielded a pIC50 of 7.57. Work on `CC(=O)N[C@@H](C)/C=C/c1ccc(Oc2ccc(-c3ccc(F)cc3)cc2)nc1` [Compound I-514] yielded a pIC50 of 7.02. Work on `CC(=O)N[C@@H](C)/C=C/c1ccc(Oc2ccc(-c3ccc(C#N)cc3)cc2)nc1` [Compound I-515] yielded a pIC50 of 6.07. Molecule `CC(=O)N[C@@H](C)/C=C/c1ccc(Oc2ccc(N3CCCCC3)nc2)nc1` [Compound I-516] has a pIC50 of 6.77. In the case of `CC(=O)N[C@@H](C)/C=C/c1ccc(Oc2cnc(N3CCC(F)(F)CC3)nc2)nc1` [Compound I-517], the pIC50 was 7.33. For `CC(=O)N[C@@H](C)/C=C/c1ccc(Oc2ccc3c(c2)C(=O)N(CC2CC2)CC3)nc1` [Compound I-518], the pIC50 was 6.10. With `CC(=O)N[C@@H](C)/C=C/c1ccc(Oc2ccc3c(c2)OC(C)(C)C3)nc1` [Compound I-519] the pIC50 was 7.23. For `CC(=O)N[C@@H](C)/C=C/c1ccc(Oc2cnc(N3CCC(F)CC3)nc2)nc1` [Compound I-520], the pIC50 was 7.12. For `CCOc1ccc(Oc2ccc(/C=C/C(C)CNC(C)=O)cn2)c(Cl)c1` (stereo not shown) [I’-1], the pIC50 was 6.25.
